Non-standard residues stand in square brackets, D forms with d. Residues, ends and D or L forms follow the SMILES beside them.
Experiments:
[1] = system: α1-acid glycoprotein (AGP); settings: Jiang et al.; read-out: KD of D3 to AGP; cited from earlier work
From the text: This had been expected before as all three D-peptides have a positive net charge and AGP is known to more strongly bind positively charged molecules as compared to HSA, which is known to bind rather acidic or neutral molecules. This had been observed previously for D3 in a similar manner. […] The unbound fractions (fu) of the th ...

Aβ1-42 = target: T1, Aβ1-42 (Homo sapiens, UniProt P05067); test: Aβ aggregation assay (Thioflavin T); format: biochemical; settings: 10 μM Aβ1-42, 5 μM ThT, 20 mM sodium phosphate pH 7.4, 50 mM NaCl, 37°C, 70 h, triplicates, nonlinear regression; read-out: IC50, inhibition of Aβ1-42 aggregation into ThT-positive fibrils
T1 construct: Lyophilized Aβ1 - 42 was dissolved in the respective peptide solution; purchased Isoloid GmbH (recombinant) or Bachem AG (synthetic)
T1 sequence (P05067 672-713 limits assumed): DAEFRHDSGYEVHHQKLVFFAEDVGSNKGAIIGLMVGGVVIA
Description: The potencies of ANK6, tANK6, cANK6r, and D3 to inhibit Aβ1 - 42 aggregation was examined using Thioflavin T (ThT). For this purpose, a buffer solution composed of 20 mM sodium phosphate buffer (pH 7.4) including 50 mM sodium chloride, and 5μM ThT was prepared. Afterwards, ANK6, tANK6, cANK6r, or D3 were diluted in this solution, respectively, to final peptide concentrations between 0.3125 and 80μM (ANK6 and tANK6:0.3125, 0.625, 1.25, 2.5, 5, 10, 20μM; cANK6r: 1.25, 2.5, 5, 10, 20, 40, 80μM; D3:1.17, 2.34, 4.7, 9.4, 18.8, 37.5, 75μM).
The buffer solution only served as negative control (blank). Lyophilized Aβ1 - 42 was dissolved in the respective peptide solution to a final concentration of 10μM. D-peptide solutions with the highest concentration of the respective D-peptide containing all components, except of Aβ1 - 42, served as negative controls. Aβ1 - 42 solved in buffer solution without D-peptide served as positive control. 100μL of each solution were transferred into the wells (triplicates) of 96 well microplates (PS, black, non-binding from Greiner Bio-One, Germany) and fluorescence signals (excitationλ 440 nm, emissionλ 490 nm) were measured in a Polarstar Optima plate reader (BMG, Germany) at 37°C every 20 min for 70 h. Afterwards, the respective blank curves were subtracted from each aggregation curve to exclude background fluorescence. […] The half maximal inhibitory concentration (IC50 value) was determined by plotting the percent inhibition against the respective D-peptides’ concentrations. Datasets were fitted by nonlinear regression (one site – specific binding with Hill slope, GraphPad Prism 5).

IC50 (Aβ1-42): 7.2 µM
Structure (SMILES): CC(C)C[C@@H](NC(=O)[C@@H](CCCNC(=N)N)NC(=O)[C@H](NC(=O)[C@@H](CCCNC(=N)N)NC(=O)[C@H]1CCCN1C(=O)[C@H](N)CCCNC(=N)N)[C@H](C)O)C(=O)N[C@H](Cc1c[nH]cn1)C(=O)N[C@@H](C(=O)N[C@H](Cc1c[nH]cn1)C(=O)N[C@H](CCCNC(=N)N)C(=O)N[C@H](CC(N)=O)C(=O)N[C@H](CCCNC(=N)N)C(N)=O)[C@H](C)O [Peptide D3] (H-[dR][dP][dR][dT][dR][dL][dH][dT][dH][dR][dN][dR]-NH2)
Kd [1]: 1.8 µM

— publication PMC6218115, “In Vitro Potency and Preclinical Pharmacokinetic Comparison of All-D-Enantiomeric Peptides Developed for the Treatment of Alzheimer’s Disease” (Journal of Alzheimer's Disease, 2018)
